Experimental data from patent publication US20230413819A1, “METHODS FOR CONTROLLING FLEA AND TICK INFESTATIONS IN A MAMMAL” (In the Bowl Animal Health, Inc., priority 2021, published 2023).

What was measured:
Ctenocephalides felis = assay: Efficacy of spinosyn per os to dogs against Ctenocephalides felis, comb counts of live adult fleas (Example 2); type: in vivo; conditions: for percent reduction in live adult flea counts: by the day 14 comb count
Excerpt: (§1) Methods: A pool of 40 dogs are to be preliminarily infested with ˜100 unfed adult C. felis in order to produce a pool of dogs that can suitably sustain a reliable infestation rate of approximately 50% of live fleas over a 48-hour period. The dogs with the highest live flea counts are to be randomly allocated to 4 treatment groups (6 dogs per group) based on their pre-treatment flea counts from experimental infestations. The first treatment group is to be the control group and groups 2-4 are to be the test groups.
The dogs are to be housed individually during the study period and are to be fed a commercial dry dog food ration with ad libitum access to water.
Dogs in the control group are not to receive a spinosyn or any other flea control treatment. Each dog in test groups 2-4 is to be offered its daily ration (dry food) and the individual doses of liquid formulation are to be administered after the individual dog has eaten at least 25% of its total daily ration. After receiving the dose of a spinosyn the dogs are to be allowed to continue eating. This mimics incorporating the spinosyn in feed. Each dog in test groups 2-4 and the control group is to be experimentally infested with 100 unfed adult fleas on test days −1, 5, 12, 19, 28 and 35. Comb counts for live adult fleas are to be conducted on days 2, 7, 14, 21, 30 and 37. The final experimental infestation is to occur five days after the last daily dose of spinosyn.

C. felis = assay: Efficacy of spinosyn in medicated feed dosed at 0.5 mg/kg, comb counts of live adult fleas (Example 3); type: in vivo; conditions: dogs
Excerpt: as §1, with “pool of dogs are” for “pool of 40 dogs are”, “pool of 18 dogs that” for “pool of dogs that”, “allocated to 3 groups (6” for “allocated to 4 treatment groups (6”, “and groups 2-3 are to” for “and groups 2-4 are to”
The dogs are to be housed individually during the study period and are to have ad libitum access to water.
There is to be an initial acclimation period of at least 4 days during which dogs in test groups 2 and 3 are to be transitioned from a standard certified commercial chow to an unmedicated version of the daily feed. During the acclimation period, the dogs are to be allowed 1 hour to consume the feed, after which the dogs' acceptance of the feed will be observed and recorded.
Dogs in the control group are not to receive a spinosyn or any other flea control treatment. On days 0-29, each dog in test groups 2 and 3 is to be offered its daily feed containing spinosyn for a period of 1 hour. On days 30-37 all dogs will be given regular dog food, without spinosyn, or a physiologically acceptable derivative thereof […]

spinosad
percent reduction in live adult flea counts (Ctenocephalides felis; Group 2, 0.25 mg/kg daily oral): 100%
efficacy (reduction in live adult flea counts) (Ctenocephalides felis; Group 3, 0.50 mg/kg daily oral days 0-29, day 37, after wash out period): over 98%
percent reduction in live adult flea counts (Ctenocephalides felis; Group 3, 0.50 mg/kg daily oral): 100%
efficacy (reduction in live adult flea counts) (Ctenocephalides felis; Group 4, 1.0 mg/kg daily oral days 0-29, day 37, after wash out period): over 98%
percent reduction in live adult flea counts (Ctenocephalides felis; Group 4, 1.0 mg/kg daily oral): 100%
efficacy (reduction in live adult flea counts) (C. felis; Group 2, 0.5 mg/kg daily feed formulation 1, by the 14-day comb count): over 90%
efficacy (reduction in live adult flea counts) (C. felis; Group 3, 0.5 mg/kg daily feed formulation 2, by the 14-day comb count): over 90%
